Values after ≈ are worked out from the molar mass of the structure shown. “Also recorded” adds a separate entry of the source.
Key:
DNA [1] = assay: Site and sequence selective DNA alkylation by polyacrylamide gel electrophoresis (PAGE); type: biochemical; settings: for Alkylation Intensity at ATAA*: site ATAA*
Source text: In contrast to FCE 24517, clear evidence of site and sequence selective DNA alkylation was obtained for the new CPI-oligopeptides by polyacrylamide gel electrophoresis (PAGE). […] Table 5 quantifies and compares the alkylation intensities at different sites for the CPI-oligopeptides with CC-1065. […] A detailed analysis of the frequency of occurrence of bases flanking the prominent alkylation sites for YW-052 and YW-053 compared with CC-1065 is given in Table 7.

[2] = tested on: KB human nasopharyngeal carcinoma cells; assay: Cytotoxicity (antiproliferative effect), crystal violet staining; type: cell-based; settings: Homo sapiens, KB, 72 h, Table 2; KB cells, 3 days; read-out: KB cells, toxicity TD50
Protocol: KB human nasopharyngeal carcinoma cells, were maintained in RPMI 1640 medium supplemented with 10% fetal bovine serum. KB cells were cultured in plastic tissue culture flasks and kept in an incubator at 37° C. in humidified air containing 5% CO2. These cells were free of Mycoplasma as determined with Hoechst 33258 stain.
The antiproliferative effect of compounds was determined using cell staining method by crystal violet.
One hundred-μ1 cultures were established at 10^3 cells/well in 96-well tissue culture plates (Nunc, Roskilde, Denmark). After 24 h. 100 µl of the medium containing 2 times concentrated the compounds were added to the cell culture. After an additional 3 days culture, cells were fixed to 20 µl of 25% glutaraldehyde for 15 minutes and washed with water, dried and stained with 0.05% crystal violet in 20% methanol for 15 minutes. After washing with water and drying, crystal violet was extracted with 100 µl of 50 mM NaH2 PO4 /ethanol (1:1 v/v) and OD540 was measured by the multiscanphotometer (Corona, Tokyo, Japan). A linear relationship between cell number and the amount of dye binding was found over the range of cell densities observed all experiments.

DNA [3] = settings: in words; cited from earlier work
[4] = clinical applications/usage; in words; cited from earlier work

COc1c(O)c2c(c3cc(C(=O)N4CCc5c4c(O)c(OC)c4[nH]c(C(=O)N6CC7CC78C6=CC(=O)c6[nH]cc(C)c68)cc54)[nH]c13)CCN2C(N)=O (stereo not drawn) [CC-1065, reference compound]
Frequency of Occurrence, base A at +1 (DNA [1]; A, position +1): 30%
Frequency of Occurrence, base A at +2 (DNA [1]; A, position +2): 30%
Frequency of Occurrence, base A at +3 (DNA [1]; A, position +3): 20%
Frequency of Occurrence, base A at -1 (DNA [1]; A, position -1): 40%
Frequency of Occurrence, base A at -2 (DNA [1]; A, position -2): 40%
Frequency of Occurrence, base A at -3 (DNA [1]; A, position -3): 30%
Frequency of Occurrence, A/T at +1 (DNA [1]; A/T, position +1): 80%
Frequency of Occurrence, A/T at +2 (DNA [1]; A/T, position +2): 60%
Frequency of Occurrence, A/T at +3 (DNA [1]; A/T, position +3): 50%
Frequency of Occurrence, A/T at -1 (DNA [1]; A/T, position -1): 100%
Frequency of Occurrence, A/T at -2 (DNA [1]; A/T, position -2): 100%
Frequency of Occurrence, A/T at -3 (DNA [1]; A/T, position -3): 60%
Frequency of Occurrence, base C at +3 (DNA [1]; C, position +3): 10%
Frequency of Occurrence, base C at -3 (DNA [1]; C, position -3): 30%
Frequency of Occurrence, base G at +1 (DNA [1]; G, position +1): 20%
Frequency of Occurrence, base G at +2 (DNA [1]; G, position +2): 40%
Frequency of Occurrence, base G at +3 (DNA [1]; G, position +3): 40%
Frequency of Occurrence, base G at -3 (DNA [1]; G, position -3): 10%
DNA alkylation (DNA [1]; PAGE, in words): alkylate DNA strongly
Frequency of Occurrence, base T at +1 (DNA [1]; T, position +1): 50%
Frequency of Occurrence, base T at +2 (DNA [1]; T, position +2): 30%
Frequency of Occurrence, base T at +3 (DNA [1]; T, position +3): 30%
Frequency of Occurrence, base T at -1 (DNA [1]; T, position -1): 60%
Frequency of Occurrence, base T at -2 (DNA [1]; T, position -2): 60%
Frequency of Occurrence, base T at -3 (DNA [1]; T, position -3): 30%
Frequency of Occurrence, A* (site of alkylation) (DNA [1]; alkylated base A*): 100%
Frequency of Occurrence, G* (site of alkylation) (DNA [1]; alkylated base G*): 0%
Alkylation Sites (5'-3'), Moderate (DNA [1]; moderate sites): TATA, TTAA, GTTA; also recorded: CTTA, GGAA
Alkylation Intensity at AATA* (DNA [1]; site AATA*): 1.08
Alkylation Intensity at ATAA* (DNA [1]; first column of Table 5): 1.47
Alkylation Intensity at ATAA* (DNA [1]; third column of Table 5): .96
Alkylation Intensity at CTTA (DNA [1]; site CTTA): .61
Alkylation Intensity at GAAA (DNA [1]; site GAAA): .35
Alkylation Intensity at GATA* (DNA [1]; site GATA*): .80
Alkylation Intensity at GTTA (DNA [1]; site GTTA): 1.20
Alkylation Intensity at TATA (DNA [1]; site TATA): 1.02
Alkylation Intensity at TTAA* (DNA [1]; site TTAA*): .80
Alkylation Intensity at TTTA (DNA [1]; site TTTA): 1.09
Alkylation Sites (5'-3'), Strong (DNA [1]; strong sites): TTTA, GATA, ATAA; also recorded: AATA, ATAA
IC50 [2]: 0.001 ng/mL (≈ 0.00142 nM)
DNA sequence recognition (DNA [3]): strictly AT recognizing; also recorded: strictly limited AATT recognition
toxicity (delayed death syndrome) [4]: too toxic for clinical applications because of the delayed death syndrome; also recorded: too toxic for clinical usage
